The subject of test [1] is colony-forming cells (CFC). Nature of the test: Colony-forming cell (CFC) assay of CMA expanded CB cells. It is filed as cell-based, human. The following applies: for CFC PE (%) (Colony Forming Cell Plating Efficiency): mean ± SEM of three independent experiments. As to the method: (§1) Colony-forming cell (CFC) were assayed by plating 5×10^2 cells per dish in semisolid media and were counted after 14 days as described (Araki et al., 2009, Id.). The number of cobble stone area-forming cell (CAFC) was quantitated in primary and expanded CD34+ cells by plating in limiting dilution onto irradiated M2-10B4 stromal cells as described (Araki et al., 2009, Id.; Conneally et al., 1997, Proc. Natl. Acad. Sci. USA. 94: 9836-9841; Taswell, 1981, J. Immunol. 126: 1614-1619).
(§2) In order to determine the a correlation between expansion of CD34^+CD90^+ cells and their functional potential as pluripotent hematopoietic stem cells, in vitro functional assays were performed, including assessment of colony-forming cells (CFC), a short-term assay, and cobblestone-area forming cells (CAFC), a long-term assay.

The test system of test [2] is histone H4 acetylation of gene promoter sites. Nature of the test: Chromatin immunoprecipitation (ChIP) assay with anti-acetyl-Histone H4 antibody. Type of test: cell-based, human. The following applies: FIG. 6B. On the procedure: The ChIP assay was carried out using a commercial Assay kit using the manufacturer's protocol (Millipore; Billerica, Mass.) as described (Sankar et al., 2008, Oncogene 27: 5717-5728). Briefly, after 72 hours of culture CD34^+ cells were crosslinked with formaldehyde and the cell pellet was lysed and sonicated to produce genomic fragments and immunoprecipitated using anti-acetyl-Histone H4 antibody (Millipore). Amplified PCR fragments were then analyzed on a 1.2% agarose gel.
In order to examine whether the alteration of gene expression observed in CD34^+ cells during ex vivo expansion culture with CMA was due to changes in histone acetylation, acetylation of histone H4 was analyzed for several gene promoter sites including HoxB4, Bmi1, GATA2, PU.1, as well as GAPDH as a control. Standard chromatin immunoprecipitation (ChIP) assays were used employing an antibody specific to acetylated histone H4 as described previously (Sankar et al., 2008, Oncogene 27:5717-28). […] More promoter fragments for Bmi1, HoxB4, and GATA2, and less fragments for PU.1 were amplified in 5azaD/TSA expanded CD34^+ cells as compared to control and VPA-expanded CD34^+ cells (FIG. 6B).

Test [3] relates to cobblestone area-forming cells (CAFC). Nature of the test: Cobblestone area-forming cell (CAFC) assay, limiting dilution on M2-10B4 stromal cells. The following applies: for CAFC Frequency/10^4 cells: limiting dilution, mean ± SEM of three independent experiments. Type of test: cell-based, human. On the procedure: as §1, §2
The test system of test [4] is promoter CpG sites (GATA1, S100A8, Cyp11A1). Nature of the test: Pyrosequencing of promoter CpG sites of genes in expanded CD34+ cells. The following applies: FIG. 5C. It is filed as cell-based, human. As to the method: (§3) DNA methylation analysis was performed by EpigenDx (Worcester, Mass.) using quantitative pyrosequencing and the PSQ-HS96 system according to standard procedures (Warren et al., 2010, Cell Stem Cell. 7: 618-630). Primers were developed for the CpG sites near the promoter area as detailed in Table 3. Briefly, genomic DNA was isolated from primary or CMA expanded enriched CD34^+ cells using the Blood and Cell Culture DNA kit (Qiagen, Valencia Calif.). Genomic DNA was bisulfite treated by an EZ Methylation Kit (Zymo Research, Irvine, Calif.), and biotinylated gene specific primers or long interspersed nucleotide element 1 (LINE-1) primers were used to amplify regions of interest for analysis as described (Bhatia et al., 1997, J Exp Med. 186: 619-624).
Genomic DNA was isolated from primary, 5azaD/TSA or VPA expanded CD34^+ cells following culture using the Blood and Cell Culture DNA kit (Qiagen, Valencia Calif.). Genomic DNA was bisulfite treated by an EZ Methylation Kit (Zymo Research, Irvine, Calif.).

The next test relates to LINE-1. Description: Global DNA methylation (LINE-1) by pyrosequencing. Type of test: cell-based, human. The following applies: CD34+ cells at day 3 of culture; FIG. 6A. On the procedure: as §3
Global methylation of genomic DNA was quantified by assaying long interspersed nucleotide element 1 (LINE 1) methylation as a surrogate marker (Yang et al., 2004, Nucleic Acids Res. 32: e38). The degree of global methylation of CD34^+ cells prior to and following ex vivo culture in the presence or absence of CMAs (5azaD/TSA and VPA) was determined in these experiments. […] CD34^+ cells cultured in 5azaD/TSA and VPA had 55.4%±2.2% and 77.2%±2.0% methylation respectively at day 3 (FIG. 6A).

The subject of test [5] is NOD/SCID mice. Nature of the test: In vivo bone marrow homing assay. On the set-up: species or system mouse. The following applies: expanded CB cells homing to bone marrow; FIG. 2F. As to the method: In order to assess whether the lower SRC frequency, or lower hematopoietic chimerism, detected following transplantation of VPA expanded cells was due to a defect in the homing of transplanted cells to the host bone marrow, an in vivo homing assay was performed in NOD/SCID mice.

For test [6], the system named is NOD/SCID mice. Description: NOD/SCID transplantation assay: in vivo hematopoietic reconstitution by expanded CB cells. On the set-up: species or system mouse. As to the method: Immunodeficient nonobese diabetic/ltsz-scid/scid (NOD/SCID) mice were purchased from Jackson Laboratories (Bar Harbor, Me.) and transplantation assays were performed as described (Araki et al., 2009, Id.; Araki et al., 2007, Id.; Taswell, 1981, Id.). Equal number of primary CD34^+ cells or the progeny of an equal initial number of CD34^+ cells following culture were injected per mouse intravenously. Mice were sacrificed 8 weeks after transplantation, and bone marrow (BM) cells from each mouse were analyzed by flow cytometry to detect multilineage human cell engraftment.
Furthermore, hematopoietic stem cell potency of CMA-treated cord blood cells was evaluated in vivo by assaying hematopoietic repopulation potential of CD34^+ cells expanded with various CMAs. In these experiments, non-obese diabetic/severely combined immunodeficient (NOD/SCID) mice were transplanted with primary CD34^+ cells or the equivalent starting number of CD34^+ cells expanded in culture media supplemented by cytokines alone or in combination with 5azaD/TSA, VPA or 5azaD/VPA. […] Cells from cultures expanded with cytokines and VPA were capable of human hematopoietic engraftment in 2 out of 7 mice with a barely detectable level of chimerism (0.11%, 0.14%) (FIG. 2C).

Several values for one entry are separate records, joined by “and”; a condition that tells them apart may be missing. Equal entries are not always repeated.

Consider `CCCC(CCC)C(=O)O` [VPA, valproic acid], for which the “fold expansion of primitive CFU-mix colonies” value in test [1] (cytokines plus CMA, FIG. 2A) worked out at 13.3±4.7 fold. In addition, the “CFC PE (%) (Colony Forming Cell Plating Efficiency)” value was determined as 15.27% in test [1] and 15.27 ± 3.66 % in test [1] (listed as VPA Alone). Moreover, in test [2] (CD34+ cells after 72 hours of culture), the “histone H4 acetylation of the promoter regions of HoxB4, Bmi1 and GATA2 genes in contrast to control cultures” value is given as “Increased histone H4 acetylation”. For the same compound, the “levels of histone H4 acetylation for Bmi1 and HoxB4 genes compared to control cultures” value in test [2] is on record as “intermediate levels”. Also, in test [3] (FIG. 2B), the “fold expansion of long term (5 weeks) CAFC” value turned out to be 8.4±1.6 fold. Further, the “CAFC Frequency/10^4 cells” value in test [3] was 14.67±0.74 /10^4 cells; in test [3] (listed as VPA Alone) it was 14.67 ± 0.74 /10^4 cells. In addition, the “methylation levels of S100A8 and Cyp11A1 gene promoter sites” value in test [4] was “almost completely lacked any changes in methylation”. The “methylation of the GATA1 gene promoter” value in test [4] is on record as “minimal demethylation”. Also, the “mean LINE 1 methylation (four CpG sites)” value in the test with LINE-1 was 77.2%. The compound also registered a homing efficiency in the test on NOD/SCID mice [5] of 1.68%. In the test with NOD/SCID mice [6] (Day 9 expanded CD34+ cells), the “regenerative capacity (in vivo hematopoietic reconstitution function) of expanded CD34+ cells” value is “possessing regenerative potential”. In the test with NOD/SCID mice [6] (FIG. 2D), the “multilineage differentiation of expanded cells following transplantation” value is “retained the ability to differentiate into both myeloid and lymphoid lineages”. For the same compound, the “mice with human hematopoietic engraftment of mice transplanted” value in the test with NOD/SCID mice [6] (cells expanded with cytokines plus CMA, i.v., analysed 8 weeks after transplantation, FIG. 2C) was 2 out of 7. In addition, the “human hematopoietic chimerism (human CD45+ cells in mouse bone marrow)” value with NOD/SCID mice [6] (engrafted recipient mice, FIG. 2C) is 0.11% and 0.14%.

The values are drawn from patent US20130136722A1, “Methods of Ex Vivo Expansion of Blood Progenitor Cells, and Generation of Composite Grafts” (The Board of Trustees of The University of Illinois, priority 2011, published 2013).
